According to US9133162B2, “Substituted quinoline compounds and methods of use” (SUNSHINE LAKE PHARMA CO., LTD., priority 2011, dated 2015):
Entries after “also recorded” stand apart in the source; their conditions may differ. Blank lines part the entries; values can stand above or below the molecule they belong to.

How the values were obtained:
c-Met (h) = c-Met (h) (Homo sapiens (Human), UniProt P08581); assay: c-Met (h) kinase assay (33P-ATP filter, Millipore); type: biochemical
KDR (h) (VEGF-R2(h)) = KDR (h) (VEGF-R2(h)) (Homo sapiens (Human), UniProt P35968); assay: KDR (h) (VEGF-R2(h)) kinase assay; type: biochemical
Chain of KDR (h) (VEGF-R2(h)) (P35968 20-1356): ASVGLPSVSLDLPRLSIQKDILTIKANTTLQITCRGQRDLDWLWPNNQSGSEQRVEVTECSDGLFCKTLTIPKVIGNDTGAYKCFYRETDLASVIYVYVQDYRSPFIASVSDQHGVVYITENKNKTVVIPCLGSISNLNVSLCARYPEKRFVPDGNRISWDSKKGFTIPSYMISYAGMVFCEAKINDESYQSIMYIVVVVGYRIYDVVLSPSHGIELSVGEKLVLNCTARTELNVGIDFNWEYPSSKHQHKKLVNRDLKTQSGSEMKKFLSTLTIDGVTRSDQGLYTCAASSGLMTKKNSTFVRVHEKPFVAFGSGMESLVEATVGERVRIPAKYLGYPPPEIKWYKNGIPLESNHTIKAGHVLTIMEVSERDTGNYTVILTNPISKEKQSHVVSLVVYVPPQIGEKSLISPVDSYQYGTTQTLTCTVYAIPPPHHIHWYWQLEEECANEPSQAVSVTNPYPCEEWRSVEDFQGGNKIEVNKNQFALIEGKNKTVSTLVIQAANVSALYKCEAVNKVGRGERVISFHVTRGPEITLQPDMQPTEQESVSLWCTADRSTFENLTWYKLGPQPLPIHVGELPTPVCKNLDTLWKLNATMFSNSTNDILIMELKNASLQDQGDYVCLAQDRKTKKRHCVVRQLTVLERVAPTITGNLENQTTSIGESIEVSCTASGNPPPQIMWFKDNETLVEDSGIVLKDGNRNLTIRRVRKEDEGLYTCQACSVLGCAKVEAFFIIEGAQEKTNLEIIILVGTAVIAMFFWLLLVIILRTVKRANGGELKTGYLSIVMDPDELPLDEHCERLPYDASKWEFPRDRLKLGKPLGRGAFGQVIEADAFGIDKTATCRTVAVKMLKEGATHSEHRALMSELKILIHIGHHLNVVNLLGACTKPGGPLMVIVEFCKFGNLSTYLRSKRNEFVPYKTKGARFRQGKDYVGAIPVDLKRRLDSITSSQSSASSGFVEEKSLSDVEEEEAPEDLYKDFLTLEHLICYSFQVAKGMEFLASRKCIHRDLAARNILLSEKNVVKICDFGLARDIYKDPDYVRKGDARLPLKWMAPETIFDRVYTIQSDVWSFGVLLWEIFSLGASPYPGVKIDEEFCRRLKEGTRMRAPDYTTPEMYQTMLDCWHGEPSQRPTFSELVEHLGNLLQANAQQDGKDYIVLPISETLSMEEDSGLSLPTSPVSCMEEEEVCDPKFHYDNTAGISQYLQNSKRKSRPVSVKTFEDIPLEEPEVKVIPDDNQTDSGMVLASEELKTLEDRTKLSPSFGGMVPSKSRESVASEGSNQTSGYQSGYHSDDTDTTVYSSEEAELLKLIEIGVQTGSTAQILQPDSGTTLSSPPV
Experimental: Kinase assays can be performed by measurement of incorporation of —^33P ATP into immobilized myelin basic protein (MBP). High binding white 384 well plates (Greiner) are coated with MBP (Sigma #M-1891) by incubation of 60 μl/well of 20 μg/ml MBP in Tris-buffered saline (TBS; 50 mM Tris pH 8.0, 138 mM NaCl, 2.7 mM KCl) for 24 hours at 4° C. Plates are washed 3× with 100 μl TBS. Kinase reactions are carried out in a total volume of 34 μl in kinase buffer (5 mM Hepes pH 7.6, 15 mM NaCl, 0.01% bovine gamma globulin (Sigma #I-5506), 10 mM MgCl2, 1 mM DTT, 0.02% TritonX-100). Compound dilutions are performed in DMSO and added to assay wells to a final DMSO concentration of 1%. Each data point is measured in duplicate, and at least two duplicate assays are performed for each individual compound determination. Enzyme is added to final concentrations of 10 nM or 20 nM, for example. A mixture of unlabeled ATP and —^33P ATP is added to start the reaction (2×10^6 cpm of —^33P ATP per well (3000 Ci/mmole) and 10 μM unlabeled ATP, typically. The reactions are carried out for 1 hour at room temperature with shaking. Plates are washed 7× with TBS, followed by the addition of 50 μl/well scintillation fluid (Wallac). Plates are read using a Wallac Trilux counter. This is only one format of such assays; various other formats are possible, as known to one skilled in the art.
The above assay procedure can be used to determine the IC50 for inhibition and/or the inhibition constant, Ki. The IC50 is defined as the concentration of compound required to reduce the enzyme activity by 50% under the condition of the assay. The IC50 value is estimated by preparing a 10 point curve using a log dilution series (for example, a typical curve may be prepared using the following compound concentrations; 100 μM, 30 μM, 10 μM, 3 μM, 1 μM, 0.3 μM, 0.1 μM, 0.03 μM, 0.01 μM and […]).
The kinase assays described herein were performed at Millipore UK Ltd, Dundee Technology Park, Dundee DD2 1SW, UK
KDR (h) (VEGF-R2(h)) Assay […]

[1] = tested on: MKN45 Gastric Adenocarcinoma cells; assay: MKN45 tumor xenograft model, TGI; type: in vivo, athymic nude mice; details: 20 mg/kg p.o. QD, 16 days
Experimental: (§1) The efficacy of compounds disclosed herein was evaluated in a standard murine model of tumorigenesis. Human tumor cells (U87MG glioblastoma cells, MKN45 Gastric Adenocarcinoma cells, Caki-1 renal carcinoma cells, HUH 7 hepatocarcinoma cells, NCI-H441 lung adenocarcinoma epithelial cells, MDA-MB-231 breast adenocarcinoma cells, SMMC-7721 hepatoma cells, all from ATCC) were expended in culture, harvested, and injected subcutaneously onto the rear flank of 6-7 week old female athymic nude mice (BALB/cA nu/nu, Shanghai SLAC Laboratory Animal, Co.) (n=10 for vehicle group, n=8 for each dosing group). When tumors reached a volume of 100-250 mm^3, animals were randomly divided into vehicle control (for example, 2% HPMC+1% Tween-80 in water) and compound groups. […]
(§2) Progression of tumor growth is assessed by tumor volumes and recorded as a function of time. The long (L) and short (W) axes of the subcutaneous tumors were measured with calipers twice weekly, and the tumor volume (TV) calculated as (L×W^2)/2). TGI was calculated from the difference between the median tumor volumes of vehicle-treated and drug-treated mice, expressed as a percentage of the median tumor volume of the vehicle-treated control group, by the following relation: […]

[2] = tested on: MDA-MB-231 breast adenocarcinoma cells; assay: MDA-MB-231 tumor xenograft model, TGI; type: in vivo, athymic nude mice; details: for TGI % (on last day of dosing) MDA-MB-231: 21 days (Day 21); for inhibition of growth of MDA-MB-231 xenograft tumors (in words): 10, 20 and 40 mg/kg p.o. QD, 21 days
Experimental: The efficacy of compounds disclosed herein was evaluated in a standard murine model of tumorigenesis. Human tumor cells (U87MG glioblastoma cells, MKN45 Gastric Adenocarcinoma cells, Caki-1 renal carcinoma cells, HUH 7 hepatocarcinoma cells, NCI-H441 lung adenocarcinoma epithelial cells, MDA-MB-231 breast adenocarcinoma cells, SMMC-7721 hepatoma cells, all from ATCC) were expended in culture, harvested, and injected subcutaneously onto the rear flank of 6-7 week old female athymic nude mice (BALB/cA nu/nu, Shanghai SLAC Laboratory Animal, Co.) (n=10 for vehicle group, n=8 for each dosing group). When tumors reached a volume of 100-250 mm^3, animals were randomly divided into vehicle control (for example, 2% HPMC+1% Tween-80 in water) and compound groups. Subsequent administration of compound by oral gavage (for example, 3-50 mpk/dose, dissolved in 2% HPMC+1% Tween-80 in water) begins anywhere from day 0 to day 15 post tumor cell challenge and generally continues with once a day for the duration of the experiment. The studies using tumor xenograft animal models described herein were performed at Shanghai Institute of Materia Medica, Chinese Academy of Sciences, 555 Zu Chong Zhi Road, Zhang Jiang Hi-Tech Park, Pudong, Shanghai, 201203, China.
Progression of tumor growth is assessed by tumor volumes and recorded as a function of time. The long (L) and short (W) axes of the subcutaneous tumors were measured with calipers twice weekly, and the tumor volume (TV) calculated as (L×W^2)/2). TGI was calculated from the difference between the median tumor volumes of vehicle-treated and drug-treated mice, expressed as a percentage of the median tumor volume of the vehicle-treated control group, by the following relation:
Initial statistical analysis is done by repeated measures analysis of variance (RMANOVA). Followed by Scheffe psot hoc testing for multiple comparisons. Vehicle alone (2% HPMC+1% Tween-80, or the like) is the negative control.
FIG. 2 illustrates the tumor growth inhibition effects of Example 1 in MDA-MB-231 breast adenocarcinoma model. Example 1 was administrated orally (p.o.) at doses of 10, 20 and 40 mg/kg once a day (QD), for 21 consecutive days.
FIG. 3 illustrates the tumor growth inhibition effects of Example 2 in MDA-MB-231 breast adenocarcinoma model. Example 2 was administrated orally (p.o.) at doses of 10, 20 and 40 mg/kg once a day (QD), for 21 consecutive days.

AXL = AXL (Homo sapiens (Human), UniProt P30530); assay: Axl cellular phosphorylation assay in transfected MEF cells (Sandwich-ELISA); type: cell-based; details: MEF cells expressing full-length AXL
Chain of AXL (P30530 26-894): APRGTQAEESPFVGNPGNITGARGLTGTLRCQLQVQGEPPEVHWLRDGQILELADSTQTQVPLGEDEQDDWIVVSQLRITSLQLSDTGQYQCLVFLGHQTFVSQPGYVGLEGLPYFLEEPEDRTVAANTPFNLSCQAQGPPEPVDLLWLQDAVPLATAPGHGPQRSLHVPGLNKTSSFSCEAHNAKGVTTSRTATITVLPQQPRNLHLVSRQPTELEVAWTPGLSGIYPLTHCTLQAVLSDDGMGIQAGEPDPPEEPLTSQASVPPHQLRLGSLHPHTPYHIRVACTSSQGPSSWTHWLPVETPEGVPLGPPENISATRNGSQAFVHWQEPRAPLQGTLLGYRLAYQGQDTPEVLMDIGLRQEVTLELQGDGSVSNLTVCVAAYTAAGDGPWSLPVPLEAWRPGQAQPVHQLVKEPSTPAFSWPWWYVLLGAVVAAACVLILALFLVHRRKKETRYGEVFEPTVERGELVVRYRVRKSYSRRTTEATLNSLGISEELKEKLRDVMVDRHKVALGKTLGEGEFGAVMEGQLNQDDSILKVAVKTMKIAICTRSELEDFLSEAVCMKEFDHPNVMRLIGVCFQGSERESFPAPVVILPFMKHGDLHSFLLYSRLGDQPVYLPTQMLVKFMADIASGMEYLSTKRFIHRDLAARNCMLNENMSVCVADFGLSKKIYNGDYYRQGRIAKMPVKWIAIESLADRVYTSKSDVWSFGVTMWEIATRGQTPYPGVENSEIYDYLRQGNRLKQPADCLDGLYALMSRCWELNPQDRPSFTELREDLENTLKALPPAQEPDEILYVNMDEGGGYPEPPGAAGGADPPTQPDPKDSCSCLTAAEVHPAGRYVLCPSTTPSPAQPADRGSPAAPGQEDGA
Experimental: (§3) The autophosphorylation level was determined Sandwich-ELISA technique.
Axl Phosphorylation Assay:
Cellular AXL phosphorylation assay was generated on a mouse embryonal fibroblast (MEF) background. Cells were transfected to express a full-length AXL protein. […] PhosphoAXL levels are quantified by Sandwich-ELISA technique.

human VEGF-R2 = human VEGF-R2 (Homo sapiens (Human), UniProt P35968); assay: VEGF-R2 cellular phosphorylation assay in HUE cells (Sandwich-ELISA); type: cell-based; details: VEGF-A stimulated
Chain of human VEGF-R2 (P35968 20-1356): as the sequence (P35968 20-1356) above
Experimental: as §3
VEGF-R2 Phosphorylation Assay:
Immortalized human umbilical vein endothelial cells (HUE) are known to overexpress human VEGF-R2. Stimulation of these cells with its physiological ligand VEGF-A results in a robust receptor autophosphorylation. Compounds are preincubated before cell stimulation to allow thorough target binding. Stimulation conditions are optimized to determine dose-related inhibition of the phospho-VEGF-R2 signal, which is subsequently quantified by Sandwich-ELISA technique. The assay is validated based on known inhibitors of VEGF-R2 kinase activity.

[3] = tested on: NCI-H441 lung adenocarcinoma epithelial cells; assay: NCI-H441 tumor xenograft model, TGI; type: in vivo, athymic nude mice; details: 20 mg/kg p.o. QD, 21 days
Experimental: as §1, §2

c-Met = c-Met (Homo sapiens (Human), UniProt P08581); assay: cell-based
Chain of c-Met (P08581 25-1390): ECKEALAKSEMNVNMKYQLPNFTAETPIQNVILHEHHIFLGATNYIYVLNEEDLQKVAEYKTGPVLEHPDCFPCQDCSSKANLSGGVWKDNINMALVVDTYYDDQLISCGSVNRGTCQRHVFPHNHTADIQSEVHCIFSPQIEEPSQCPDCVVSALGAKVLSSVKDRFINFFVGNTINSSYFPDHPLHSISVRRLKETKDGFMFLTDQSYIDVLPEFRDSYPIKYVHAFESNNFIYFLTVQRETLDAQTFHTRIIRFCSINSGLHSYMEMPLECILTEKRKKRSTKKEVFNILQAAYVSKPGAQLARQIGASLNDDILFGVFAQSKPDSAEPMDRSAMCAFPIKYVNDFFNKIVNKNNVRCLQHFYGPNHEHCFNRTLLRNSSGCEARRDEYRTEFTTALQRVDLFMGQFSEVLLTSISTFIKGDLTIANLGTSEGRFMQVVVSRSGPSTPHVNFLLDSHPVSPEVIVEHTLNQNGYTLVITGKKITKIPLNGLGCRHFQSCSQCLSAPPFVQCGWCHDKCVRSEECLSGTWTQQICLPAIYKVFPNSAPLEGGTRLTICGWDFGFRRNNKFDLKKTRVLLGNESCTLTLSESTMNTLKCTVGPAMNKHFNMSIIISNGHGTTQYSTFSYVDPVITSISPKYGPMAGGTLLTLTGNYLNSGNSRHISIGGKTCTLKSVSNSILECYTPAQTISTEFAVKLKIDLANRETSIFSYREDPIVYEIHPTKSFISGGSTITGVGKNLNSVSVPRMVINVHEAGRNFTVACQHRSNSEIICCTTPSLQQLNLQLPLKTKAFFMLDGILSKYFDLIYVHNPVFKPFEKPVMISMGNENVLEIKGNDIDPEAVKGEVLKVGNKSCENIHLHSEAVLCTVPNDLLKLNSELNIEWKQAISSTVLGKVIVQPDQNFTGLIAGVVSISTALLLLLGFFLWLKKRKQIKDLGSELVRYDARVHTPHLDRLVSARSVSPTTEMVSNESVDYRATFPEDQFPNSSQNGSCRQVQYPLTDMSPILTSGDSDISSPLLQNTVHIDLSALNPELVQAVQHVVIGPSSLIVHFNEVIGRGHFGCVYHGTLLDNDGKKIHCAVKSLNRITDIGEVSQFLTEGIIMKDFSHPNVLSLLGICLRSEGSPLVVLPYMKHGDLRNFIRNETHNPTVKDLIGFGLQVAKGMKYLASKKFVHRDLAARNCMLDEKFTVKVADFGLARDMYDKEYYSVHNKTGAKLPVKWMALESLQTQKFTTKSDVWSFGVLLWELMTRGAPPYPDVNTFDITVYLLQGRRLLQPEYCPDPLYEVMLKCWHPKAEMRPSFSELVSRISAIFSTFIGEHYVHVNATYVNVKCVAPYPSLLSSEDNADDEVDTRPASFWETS
Experimental: The autophosphorylation level was determined Sandwich-ELISA technique. IC50 values are determined by testing 8 compound concentrations in semi-logarithmic steps (each concentration in duplicates). The steps of the cellular phosphorylation assay are illustrated in FIG. 1.
c-Met Phosphorylation Assay:
The human gastric adenocarcinoma cell line MKN45 is known to overexpress c-Met. c-Met overexpression results in a constitutive, ligand-independent autophosphorylation of the kinase. […] Phospho-MET signal is subsequently quantified by Sandwich-ELISA technique. The assay is validated based on known inhibitors of MET kinase activity.

[4] = tested on: HUH 7 hepatocarcinoma cells; assay: Huh-7 tumor xenograft model, TGI; type: in vivo, athymic nude mice; details: 20 mg/kg p.o. QD, 14 days
Experimental: as §1, §2

[5] = tested on: Caki-1 renal carcinoma cells; assay: Caki-1 tumor xenograft model, TGI; type: in vivo, athymic nude mice; details: 20 mg/kg p.o. QD, 21 days
Experimental: as §1, §2

Axl (h) = Axl (h) (Homo sapiens (Human), UniProt P30530); assay: Axl (h) kinase assay; type: biochemical
Chain of Axl (h) (P30530 26-894): as the sequence (P30530 26-894) above
Experimental: Compound dilutions are performed in DMSO and added to assay wells to a final DMSO concentration of 1%. Each data point is measured in duplicate, and at least two duplicate assays are performed for each individual compound determination. Enzyme is added to final concentrations of 10 nM or 20 nM, for example.
The above assay procedure can be used to determine the IC50 for inhibition and/or the inhibition constant, Ki.
(specific activity approx. 500 cpm/pmol, concentration as required). The reaction is initiated by the addition of the MgATP mix. After incubation for 40 minutes at room temperature, the reaction is stopped by the addition of 3% phosphoric acid solution. 10 μL of the reaction is then spotted onto a P30 filtermat and washed three times for 5 minutes in 75 mM phosphoric acid and once in methanol prior to drying and scintillation counting.

U87MG glioblastoma cells = assay: U87MG tumor xenograft model, TGI; type: in vivo, athymic nude mice; details: 10 mg/kg p.o. QD, 16 days
Experimental: as §1, §2

Chain of c-Met (h) (P08581 25-1390): as the sequence (P08581 25-1390) above

IC50 (c-Met (h)): 0.01 µM | IC50 (KDR (h) (VEGF-R2(h))): 0.04 µM
Compound: COc1cc2c(Oc3ccc(NC(=O)c4c(C)n(C)n(-c5ccccc5)c4=O)cc3F)ccnc2cc1OCC(C)(C)O [Example 4, N-(3-fluoro-4-((7-(2-hydroxy-2-methylpropoxy)-6-methoxyquinolin-4-yl)oxy)phenyl)-1,5-dimethyl-3-oxo-2-phenyl-2,3-dihydro-1H-pyrazole-4-carboxamide]

IC50 (c-Met (h)): 0.027 µM
Compound: Cc1c(C(=O)Nc2ccc(Oc3ccnc4cc(OC(C)(C)CO)ccc34)c(F)c2)c(=O)n(-c2ccccc2)n1C [Example 14, N-(3-fluoro-4-((7-((1-hydroxy-2-methylpropan-2-yl)oxy)quinolin-4-yl)oxy)phenyl)-1,5-dimethyl-3-oxo-2-phenyl-2,3-dihydro-1H-pyrazole-4-carboxamide]

IC50 (c-Met (h)): 0.007 µM | IC50 (KDR (h) (VEGF-R2(h))): 0.023 µM
Compound: Cc1c(C(=O)Nc2ccc(Oc3ccnc4cc(OC[C@@H](C)O)ccc34)c(F)c2)c(=O)n(-c2ccccc2)n1C [Example 2, (R)—N-(3-fluoro-4-((7-(2-hydroxypropoxy)quinolin-4-yl)oxy)phenyl)-1,5-dimethyl-3-oxo-2-phenyl-2,3-dihydro-1H-pyrazole-4-carboxamide]
TGI % (on last day of dosing) MKN45 [1]: 22% | TGI % (on last day of dosing) MDA-MB-231 ([2]; 10 mg/kg p.o. QD): 72% | TGI % (on last day of dosing) MDA-MB-231 ([2]; 20 mg/kg p.o. QD): 87% | TGI % (on last day of dosing) MDA-MB-231 ([2]; 40 mg/kg p.o. QD): 96% | inhibition of growth of MDA-MB-231 xenograft tumors (in words) [2]: inhibited the growth; also recorded: statistically significant, dose-dependent inhibition

Compound: Cc1c(C(=O)Nc2ccc(Oc3ccnc4cc(OCC(C)(C)O)ccc34)c(F)c2)c(=O)n(-c2ccccc2)n1C [Example 1, N-(3-fluoro-4-((7-(2-hydroxy-2-methylpropoxy)quinolin-4-yl)oxy)phenyl)-1,5-dimethyl-3-oxo-2-phenyl-2,3-dihydro-1H-pyrazole-4-carboxamide]
IC50 (AXL): < 0.001 µM | TGI % (on last day of dosing) MKN45 [1]: 97% | IC50 (c-Met (h)): 0.019 µM | IC50 (human VEGF-R2): 0.0017 µM | IC50 (KDR (h) (VEGF-R2(h))): 0.037 µM | TGI % (on last day of dosing) NCI-H441 [3]: 97% | IC50 (c-Met): 0.0069 µM | TGI % (on last day of dosing) Huh-7 [4]: 53% | TGI % (on last day of dosing) Caki-1 [5]: 87% | IC50 (Axl (h)): 0.011 µM | TGI % (on last day of dosing) U87MG (U87MG glioblastoma cells): 98% | TGI % (on last day of dosing) MDA-MB-231 ([2]; 10 mg/kg p.o. QD): 97% | TGI % (on last day of dosing) MDA-MB-231 ([2]; 20 mg/kg p.o. QD): 112% | TGI % (on last day of dosing) MDA-MB-231 ([2]; 40 mg/kg p.o. QD): 120% | inhibition of growth of MDA-MB-231 xenograft tumors (in words) [2]: inhibited the growth; also recorded: statistically significant, dose-dependent inhibition

IC50 (c-Met (h)): 0.013 µM
Compound: Cc1c(C(=O)Nc2ccc(Oc3ccnc4cc(OC[C@H](C)O)ccc34)cc2)c(=O)n(-c2ccccc2)n1C [Example 12, (S)—N-(4-((7-(2-hydroxypropoxy)quinolin-4-yl)oxy)phenyl)-1,5-dimethyl-3-oxo-2-phenyl-2,3-dihydro-1H-pyrazole-4-carboxamide]

IC50 (c-Met (h)): 0.015 µM
Compound: Cc1c(C(=O)Nc2ccc(Oc3ccnc4cc(OC[C@@H](C)O)ccc34)cc2)c(=O)n(-c2ccccc2)n1C [Example 11, (R)—N-(4-((7-(2-hydroxypropoxy)quinolin-4-yl)oxy)phenyl)-1,5-dimethyl-3-oxo-2-phenyl-2,3-dihydro-1H-pyrazole-4-carboxamide]

IC50 (c-Met (h)): 0.013 µM
Compound: Cc1c(C(=O)Nc2ccc(Oc3ccnc4cc(OCC(C)(C)O)ccc34)cc2)c(=O)n(-c2ccccc2)n1C [Example 9, N-(4-((7-(2-hydroxy-2-methylpropoxy)quinolin-4-yl)oxy)phenyl)-1,5-dimethyl-3-oxo-2-phenyl-2,3-dihydro-1H-pyrazole-4-carboxamide]
TGI % (on last day of dosing) U87MG (U87MG glioblastoma cells): 97%
